Results as given in ChEMBL document CHEMBL1201862, “PubChem BioAssay data set” (2004).
Calls of active or inactive are those of the source.

Experiments:
[1] = target: T1, Serine/threonine-protein phosphatase (Candida dubliniensis (strain CD36 / CBS 7987 / NCPF 3949 / NRRLY-17841) (Yeast), UniProt B9W6M3); assay: Fluorescence Cell-Based Secondary Assay to Identify Inhibitors of Calcineurin. [Related pubchem assays (depositor defined):AID1979, AID2007]; type: functional
T1 sequence (B9W6M3 whole entry): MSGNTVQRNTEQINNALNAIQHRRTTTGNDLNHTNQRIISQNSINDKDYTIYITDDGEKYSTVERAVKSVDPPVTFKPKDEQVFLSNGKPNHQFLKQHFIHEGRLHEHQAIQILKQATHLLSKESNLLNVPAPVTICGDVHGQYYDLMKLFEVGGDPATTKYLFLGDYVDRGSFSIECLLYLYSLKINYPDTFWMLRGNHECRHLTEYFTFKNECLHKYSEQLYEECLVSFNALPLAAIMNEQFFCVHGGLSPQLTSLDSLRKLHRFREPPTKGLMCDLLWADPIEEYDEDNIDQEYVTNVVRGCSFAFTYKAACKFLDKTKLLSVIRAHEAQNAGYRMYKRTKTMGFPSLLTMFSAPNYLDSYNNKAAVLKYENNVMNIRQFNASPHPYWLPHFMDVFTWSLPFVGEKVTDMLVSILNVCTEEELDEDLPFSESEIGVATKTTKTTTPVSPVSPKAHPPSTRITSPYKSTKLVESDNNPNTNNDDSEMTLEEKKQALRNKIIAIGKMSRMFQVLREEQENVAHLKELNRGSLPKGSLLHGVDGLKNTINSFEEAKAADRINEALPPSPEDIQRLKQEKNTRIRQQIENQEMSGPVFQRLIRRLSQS

[2] = C. albicans growth with fluconazole, confirmation, fluorescence, retest (AID 2467); type: functional, cell-based
[3] = target: T1, Serine/threonine-protein phosphatase; assay: calcineurin pathway inhibitors in yeast reporter, dose response, S. cerevisiae, CDRE-lacZ, luminescence, secondary (AID 2388); type: functional, cell-based;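 further: yeast reporter cells carrying a calcineurin-responsive lacZ construct stimulated with calcium chloride; luminescent beta-galactosidase reporter signal in whole cells rather than isolated phosphatase activity; potency for inhibition where a drop in reporter signal means calcineurin blockade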
[4] = NIH-3T3 fibroblast cytotoxicity, dose response, cytotoxicity control, cell-based, fluorescence, Alamar Blue, secondary assay (AID 2327); type: functional;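 further: NIH-3T3 mouse fibroblasts cultured with fluconazole at 8 µg/mL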
[5] = target: ATP-dependent molecular chaperone HSP82 (Candida albicans (strain WO-1) (Yeast), UniProt C4YTQ8); assay: loss of DOC-induced GRE-beta-galactosidase reporter signal, dose response, Hsp90 inhibitor project, S. cerevisiae, luminescence (AID 2400); type: functional, cell-based;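 further: beta-galactosidase luminescence from glucocorticoid response element reporter as proxy for Hsp90 function; inhibitor potency where signal loss means Hsp90 inhibition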
Sequence of ATP-dependent molecular chaperone HSP82 (C4YTQ8 whole entry): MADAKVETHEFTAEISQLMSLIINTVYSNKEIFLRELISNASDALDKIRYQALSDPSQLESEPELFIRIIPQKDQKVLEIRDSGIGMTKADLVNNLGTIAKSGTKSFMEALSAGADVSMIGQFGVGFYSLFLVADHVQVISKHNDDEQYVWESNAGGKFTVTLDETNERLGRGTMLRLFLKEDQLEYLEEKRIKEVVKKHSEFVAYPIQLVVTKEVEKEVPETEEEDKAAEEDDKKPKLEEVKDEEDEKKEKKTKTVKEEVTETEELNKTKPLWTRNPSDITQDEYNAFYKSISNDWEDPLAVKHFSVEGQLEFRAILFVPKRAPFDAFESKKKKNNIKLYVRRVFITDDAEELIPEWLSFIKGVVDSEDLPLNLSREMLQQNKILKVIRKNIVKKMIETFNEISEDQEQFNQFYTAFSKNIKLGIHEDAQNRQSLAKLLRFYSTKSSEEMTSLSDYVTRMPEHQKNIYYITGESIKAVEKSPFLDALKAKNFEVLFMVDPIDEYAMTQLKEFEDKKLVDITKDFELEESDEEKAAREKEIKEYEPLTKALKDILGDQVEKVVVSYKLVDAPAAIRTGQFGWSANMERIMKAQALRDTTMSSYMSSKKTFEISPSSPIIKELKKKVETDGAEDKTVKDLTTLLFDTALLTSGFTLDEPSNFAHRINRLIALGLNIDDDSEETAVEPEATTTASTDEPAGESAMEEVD

[6] = cytotoxicity in MIN6 insulinoma cells, dose response, cytotoxicity control, cell-based, mouse insulinoma (AID 2122); type: functional;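 further: confirmatory high-throughput counterscreen run to flag cytotoxic compounds; mouse MIN-6 beta cells carrying an insulin promoter eGFP reporter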
[7] = tested on: Vero; assay: cells; type: functional, cell-based; conditions: Chlorocebus sabaeus
[8] = insulin promoter down-regulators in MIN6 cells, imaging, high-content screening, mouse beta cells (AID 1628); type: functional
[9] = tested on: Vero; assay: cells; type: functional; conditions: Chlorocebus sabaeus
[10] = cytotoxicity toward DRD oncogenic fibroblasts, dose response, cell-based, non-viral oncogenic, luminescence (AID 1934); type: functional; conditions: Homo sapiens
[11] = Luminescence Cell-Based Dose Confirmation HTS to Identify Inhibitors of Platelet Dense Granule Release. [Related pubchem assays: 1663 (Primary HTS), 1678 (Summary of Project)]; type: functional
[12] = tested on: BJ; assay: cytotoxicity toward BJ-TERT fibroblasts, dose response, cell-based, RAS-independent, luminescence (AID 1933); type: functional; conditions: Homo sapiens
[13] = cytotoxicity in HEK-293T cells, dose response, cytotoxicity control for TCR NF-kB inhibitor project, luminescence, T-cell screen hits (AID 489026); type: functional, cell-based;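 further: cells exposed to compound about 14 hours before the viability readout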
[14] = tested on: BJ; assay: cells; type: functional, cell-based; conditions: Homo sapiens
[15] = target: Luciferin 4-monooxygenase (Photinus pyralis, UniProt P08659); assay: firefly luciferase enzyme inhibitors, dose response, biochemical, luminescence (AID 1891)
Sequence of Luciferin 4-monooxygenase (P08659 whole entry): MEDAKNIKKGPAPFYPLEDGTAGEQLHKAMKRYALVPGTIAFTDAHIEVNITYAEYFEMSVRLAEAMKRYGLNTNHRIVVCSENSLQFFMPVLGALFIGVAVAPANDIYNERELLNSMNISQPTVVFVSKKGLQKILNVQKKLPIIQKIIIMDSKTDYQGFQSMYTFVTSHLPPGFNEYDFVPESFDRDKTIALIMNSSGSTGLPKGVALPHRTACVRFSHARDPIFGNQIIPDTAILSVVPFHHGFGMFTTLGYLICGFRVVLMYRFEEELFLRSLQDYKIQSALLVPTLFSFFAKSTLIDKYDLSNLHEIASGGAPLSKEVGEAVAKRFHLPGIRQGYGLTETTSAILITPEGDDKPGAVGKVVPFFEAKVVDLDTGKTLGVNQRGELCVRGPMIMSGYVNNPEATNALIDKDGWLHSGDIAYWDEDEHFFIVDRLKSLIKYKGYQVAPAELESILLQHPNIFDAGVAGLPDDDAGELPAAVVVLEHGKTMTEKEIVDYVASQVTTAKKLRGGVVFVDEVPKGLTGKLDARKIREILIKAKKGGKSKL

[16] = tested on: BJ; assay: cytotoxicity toward BJ-TERT-LT-ST fibroblasts, dose response, cell-based, RAS-independent, luminescence (AID 1935); type: functional; conditions: Homo sapiens;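 further: BJ fibroblasts immortalized with TERT plus LT and ST oncogenes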
[17] = target: T2, Dual specificity protein phosphatase 6 (Rattus norvegicus, UniProt Q64346)
T2 sequence (Q64346 whole entry): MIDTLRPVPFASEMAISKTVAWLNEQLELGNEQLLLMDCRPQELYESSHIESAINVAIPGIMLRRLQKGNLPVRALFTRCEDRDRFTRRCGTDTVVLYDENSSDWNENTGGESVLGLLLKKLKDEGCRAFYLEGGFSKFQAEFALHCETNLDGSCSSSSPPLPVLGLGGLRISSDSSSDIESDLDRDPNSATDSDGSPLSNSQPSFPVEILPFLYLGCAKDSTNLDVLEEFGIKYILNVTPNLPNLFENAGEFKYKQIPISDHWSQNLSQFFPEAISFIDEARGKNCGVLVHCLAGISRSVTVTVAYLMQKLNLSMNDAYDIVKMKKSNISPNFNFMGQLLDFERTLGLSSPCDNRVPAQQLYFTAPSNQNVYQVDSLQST

[18] = target: T2, Dual specificity protein phosphatase 6; type: functional
[19] = target: T3, Tyrosine-protein phosphatase non-receptor type 7 (Homo sapiens, UniProt P35236); type: functional
T3 sequence (P35236 whole entry): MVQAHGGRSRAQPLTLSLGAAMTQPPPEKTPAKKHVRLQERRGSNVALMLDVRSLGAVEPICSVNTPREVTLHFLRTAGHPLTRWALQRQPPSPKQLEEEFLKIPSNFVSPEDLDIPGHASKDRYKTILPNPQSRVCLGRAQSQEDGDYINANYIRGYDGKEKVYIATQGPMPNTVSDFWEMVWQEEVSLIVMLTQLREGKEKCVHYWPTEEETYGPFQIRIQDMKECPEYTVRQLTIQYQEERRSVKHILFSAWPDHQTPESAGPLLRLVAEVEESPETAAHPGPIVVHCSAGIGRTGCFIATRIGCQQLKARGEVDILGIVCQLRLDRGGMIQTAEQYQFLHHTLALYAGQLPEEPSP

[20] = target: Glyceraldehyde-3-phosphate dehydrogenase (Homo sapiens, UniProt P04406)
Sequence of Glyceraldehyde-3-phosphate dehydrogenase (P04406 whole entry): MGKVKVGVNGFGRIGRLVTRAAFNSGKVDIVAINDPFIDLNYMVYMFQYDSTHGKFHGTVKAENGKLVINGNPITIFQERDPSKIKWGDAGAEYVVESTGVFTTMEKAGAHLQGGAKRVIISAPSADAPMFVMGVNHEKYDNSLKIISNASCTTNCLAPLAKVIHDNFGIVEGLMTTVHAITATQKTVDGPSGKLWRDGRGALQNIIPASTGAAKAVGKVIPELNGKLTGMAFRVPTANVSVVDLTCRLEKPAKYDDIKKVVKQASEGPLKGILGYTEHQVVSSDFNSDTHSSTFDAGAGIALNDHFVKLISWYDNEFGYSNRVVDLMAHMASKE

[21] = target: Beta-2 adrenergic receptor (Homo sapiens, UniProt P07550); assay: beta2AR agonists driving receptor internalization, dose response, cell-based, FAP fluorogen, flow cytometry, cherry pick 1 (AID 588763); type: functional
Sequence of Beta-2 adrenergic receptor (P07550 whole entry): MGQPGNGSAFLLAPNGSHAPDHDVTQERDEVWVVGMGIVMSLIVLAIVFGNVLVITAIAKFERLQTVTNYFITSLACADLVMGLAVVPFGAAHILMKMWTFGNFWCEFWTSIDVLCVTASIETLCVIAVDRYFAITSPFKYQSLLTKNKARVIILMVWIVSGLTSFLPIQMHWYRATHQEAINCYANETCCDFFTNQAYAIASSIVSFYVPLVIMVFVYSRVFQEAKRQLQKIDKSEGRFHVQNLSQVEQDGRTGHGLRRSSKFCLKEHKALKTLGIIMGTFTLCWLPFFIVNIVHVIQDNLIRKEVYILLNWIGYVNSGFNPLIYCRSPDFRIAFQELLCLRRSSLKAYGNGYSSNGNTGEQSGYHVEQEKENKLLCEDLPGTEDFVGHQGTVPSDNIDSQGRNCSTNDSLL

[22] = tested on: Jurkat; assay: SAR Analysis of small molecule inhibitors of T-cell specific antigen receptor-induced NF-kB activation in a Jurkat cell line using a luminescence assay - Set 2. [Related pubchem assays (depositor defined):AID435003, AID435012, AID465]; type: functional, cell-based; conditions: Homo sapiens
[23] = tested on: HEK293; assay: cytotoxicity in HEK293T NF-kB-Luc cells, SAR follow-up, cytotoxicity control for NF-kB activator project, cell-based, resazurin fluorescence (AID 493251); type: functional; conditions: Homo sapiens
[24] = tested on: HEK293; assay: SAR Analysis of small molecule inhibitors of T-cell specific antigen receptor-induced NF-kB activation in a HEK-293T cell line using a luminescence assay - Set 2. [Related pubchem assays (depositor defined):AID435003, AID435012, AID489026]; type: functional, cell-based; conditions: Homo sapiens
[25] = target: T4, SUMO-activating enzyme (Homo sapiens, UniProt Q9UBT2); assay: SUMOylation inhibitor hit validation, confirmation, SUMOylation inhibitor project, biochemical, AlphaScreen (AID 2018); type: functional
T4 sequence (Q9UBE0 whole entry): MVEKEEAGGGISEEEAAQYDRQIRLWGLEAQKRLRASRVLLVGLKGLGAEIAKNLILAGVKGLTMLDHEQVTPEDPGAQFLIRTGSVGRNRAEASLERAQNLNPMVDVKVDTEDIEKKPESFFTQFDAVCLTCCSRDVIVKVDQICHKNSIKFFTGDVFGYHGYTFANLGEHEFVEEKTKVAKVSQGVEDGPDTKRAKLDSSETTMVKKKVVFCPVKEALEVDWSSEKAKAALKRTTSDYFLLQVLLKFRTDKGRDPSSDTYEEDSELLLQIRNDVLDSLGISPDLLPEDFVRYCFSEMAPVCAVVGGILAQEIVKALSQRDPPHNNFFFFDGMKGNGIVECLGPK
T4 sequence (Q9UBT2 whole entry): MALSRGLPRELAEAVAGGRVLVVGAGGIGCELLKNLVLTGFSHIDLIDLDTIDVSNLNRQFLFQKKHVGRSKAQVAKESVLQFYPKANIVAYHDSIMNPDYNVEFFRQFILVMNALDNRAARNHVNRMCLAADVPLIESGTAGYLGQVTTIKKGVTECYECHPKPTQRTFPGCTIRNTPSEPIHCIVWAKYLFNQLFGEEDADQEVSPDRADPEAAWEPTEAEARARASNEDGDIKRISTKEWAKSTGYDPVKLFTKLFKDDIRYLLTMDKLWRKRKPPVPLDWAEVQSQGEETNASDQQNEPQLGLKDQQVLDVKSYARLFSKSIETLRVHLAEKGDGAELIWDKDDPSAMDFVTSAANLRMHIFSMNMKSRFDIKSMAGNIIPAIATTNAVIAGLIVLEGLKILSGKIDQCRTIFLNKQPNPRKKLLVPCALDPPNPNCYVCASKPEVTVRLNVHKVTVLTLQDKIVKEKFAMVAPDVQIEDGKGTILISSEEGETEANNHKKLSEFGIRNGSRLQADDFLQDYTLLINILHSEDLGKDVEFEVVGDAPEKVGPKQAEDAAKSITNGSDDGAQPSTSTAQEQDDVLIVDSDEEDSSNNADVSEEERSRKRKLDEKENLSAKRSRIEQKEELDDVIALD

[26] = AlphaScreen signal interference compounds, dose response, artefact control for ARNT-TACC3 interaction inhibitor project, biochemical, luminescence, cherry-pick (AID 651705); type: functional;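 further: AlphaScreen bead proximity signal that flags compounds interfering with the detection technology; potency reflects signal decrease which marks the compound as an assay artifact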
[27] = tested on: Vero; assay: Vero cell cytotoxicity, cytotoxicity control for flavivirus capping enzyme inhibitors (AID 588742); type: functional; conditions: Chlorocebus sabaeus
[28] = target: Genome polyprotein (dengue virus type 2, UniProt P29990); assay: Dengue-2 NS5 methyltransferase inhibitors, primary screen, biochemical, confirmation dose response (AID 588689); type: functional
Sequence of Genome polyprotein (P29990 2492-3391 limits assumed): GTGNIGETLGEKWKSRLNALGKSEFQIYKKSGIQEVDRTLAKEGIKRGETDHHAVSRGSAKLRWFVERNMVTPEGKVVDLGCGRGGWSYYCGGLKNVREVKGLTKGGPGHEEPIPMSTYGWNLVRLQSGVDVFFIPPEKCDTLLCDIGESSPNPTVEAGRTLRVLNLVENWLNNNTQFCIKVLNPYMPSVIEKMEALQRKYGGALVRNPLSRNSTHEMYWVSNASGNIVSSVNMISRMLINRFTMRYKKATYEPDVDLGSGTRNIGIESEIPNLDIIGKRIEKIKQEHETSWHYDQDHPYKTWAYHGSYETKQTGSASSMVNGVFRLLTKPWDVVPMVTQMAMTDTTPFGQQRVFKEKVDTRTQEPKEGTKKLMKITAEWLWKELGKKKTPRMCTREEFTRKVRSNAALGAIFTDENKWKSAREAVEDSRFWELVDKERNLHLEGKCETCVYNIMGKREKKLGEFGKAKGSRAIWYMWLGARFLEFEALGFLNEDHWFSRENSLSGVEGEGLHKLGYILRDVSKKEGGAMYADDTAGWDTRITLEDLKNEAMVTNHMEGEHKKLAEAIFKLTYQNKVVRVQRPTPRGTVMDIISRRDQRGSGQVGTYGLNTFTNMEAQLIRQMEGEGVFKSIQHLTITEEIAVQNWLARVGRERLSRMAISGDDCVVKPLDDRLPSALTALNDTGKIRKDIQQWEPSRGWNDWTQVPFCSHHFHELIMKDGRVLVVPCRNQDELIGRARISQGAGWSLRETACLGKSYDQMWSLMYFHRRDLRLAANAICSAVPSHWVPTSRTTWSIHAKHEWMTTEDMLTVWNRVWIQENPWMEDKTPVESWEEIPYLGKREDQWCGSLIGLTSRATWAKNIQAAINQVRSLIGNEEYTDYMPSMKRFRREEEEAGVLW

[29] = target: T4, SUMO-activating enzyme; assay: inhibitors of in vitro SUMOylation cascade, primary screen, biochemical, HTRF, uHTS (AID 2006); type: protein-complex assay
[30] = target: Eukaryotic translation initiation factor 4E (Mus musculus, UniProt P63073); assay: eIF4E–eIF4G protein interaction inhibitors, dose response, biochemical, TR-FRET (AID 855); type: functional;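 further: potency for disrupting eIF4E binding to eIF4GI seen as loss of FRET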
Sequence of Eukaryotic translation initiation factor 4E (P63073 whole entry): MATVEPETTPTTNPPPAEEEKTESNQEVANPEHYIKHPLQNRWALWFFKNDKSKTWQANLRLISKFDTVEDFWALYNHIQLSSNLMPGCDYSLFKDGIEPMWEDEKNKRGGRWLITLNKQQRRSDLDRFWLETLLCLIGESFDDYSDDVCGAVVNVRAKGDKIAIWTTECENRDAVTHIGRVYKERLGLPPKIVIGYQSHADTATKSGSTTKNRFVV

[31] = tested on: INS1; assay: beta cell apoptosis inhibitors, cytokine rescue, dose response, luminescence, retest (AID 449756); type: functional, cell-based; conditions: Rattus norvegicus;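 further: cell death triggered by IL-1 beta plus TNF-alpha plus IFN-gamma mixture; protective hits raise ATP signal compared with cytokine alone wells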
[32] = target: Albumin (Bos taurus, UniProt P02769); assay: Counterscreen for inhibitors of T-cell receptor (TCR)-CD3 interaction: Fluorescence-based biochemical high throughput dose response assay to identify inhibitors of T-cell receptor (TCR)-CD3 interaction using a TAMRA-labeled BSA probe.; type: functional
Sequence of Albumin (P02769 whole entry): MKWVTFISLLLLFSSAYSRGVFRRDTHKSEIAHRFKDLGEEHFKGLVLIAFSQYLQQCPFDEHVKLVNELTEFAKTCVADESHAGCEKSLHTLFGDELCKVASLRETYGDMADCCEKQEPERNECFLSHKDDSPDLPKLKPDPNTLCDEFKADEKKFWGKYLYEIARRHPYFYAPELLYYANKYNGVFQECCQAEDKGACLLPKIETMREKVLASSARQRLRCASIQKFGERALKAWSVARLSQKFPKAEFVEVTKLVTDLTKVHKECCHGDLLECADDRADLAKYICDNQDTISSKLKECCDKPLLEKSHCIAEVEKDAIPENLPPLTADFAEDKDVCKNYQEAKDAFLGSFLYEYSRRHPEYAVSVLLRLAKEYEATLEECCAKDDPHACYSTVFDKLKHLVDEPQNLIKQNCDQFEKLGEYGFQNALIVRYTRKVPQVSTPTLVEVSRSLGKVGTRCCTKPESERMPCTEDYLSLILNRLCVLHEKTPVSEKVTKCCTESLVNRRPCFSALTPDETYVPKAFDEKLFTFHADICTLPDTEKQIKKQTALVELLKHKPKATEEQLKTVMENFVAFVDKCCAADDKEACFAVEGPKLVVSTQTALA

[33] = cells; type: functional, cell-based
[34] = tested on: A-375; assay: A375 melanoma cell viability reduction, dose response, counter-screen for MITF modulator project, cherry-pick samples, set 2 (AID 540335); type: functional, cell-based; conditions: Homo sapiens
[35] = target: T5, Microphthalmia-associated transcription factor (Homo sapiens, UniProt O75030); assay: TRPM1 promoter luciferase signal decrease, dose response, MITF inhibitor project, cell-based, SK-MEL-5, cherry-picked, set 3 (AID 493073); type: functional
T5 sequence (O75030 whole entry): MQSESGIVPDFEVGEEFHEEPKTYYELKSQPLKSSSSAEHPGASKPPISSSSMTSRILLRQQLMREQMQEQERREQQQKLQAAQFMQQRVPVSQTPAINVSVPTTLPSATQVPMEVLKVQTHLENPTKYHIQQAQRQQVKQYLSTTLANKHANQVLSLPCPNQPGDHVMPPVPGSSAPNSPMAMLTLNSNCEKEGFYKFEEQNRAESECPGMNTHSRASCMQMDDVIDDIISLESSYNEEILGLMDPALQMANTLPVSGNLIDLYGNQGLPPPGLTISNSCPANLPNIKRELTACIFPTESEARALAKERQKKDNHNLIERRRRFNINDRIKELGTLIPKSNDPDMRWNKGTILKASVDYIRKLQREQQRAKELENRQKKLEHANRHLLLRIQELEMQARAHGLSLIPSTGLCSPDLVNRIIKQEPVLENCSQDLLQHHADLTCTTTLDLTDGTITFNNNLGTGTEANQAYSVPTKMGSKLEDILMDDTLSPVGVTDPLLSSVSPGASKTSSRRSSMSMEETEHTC

[36] = cells; type: functional, cell-based; remark: listed apart in the source

With Cc1ccc(Nc2nc(N)c([N+](=O)[O-])c(N3CCC(C)CC3)n2)cc1C the EC50 [1] was 9.17 µM (active), the EC50 [2] was 0.207 µM (active) and the EC50 [3] was > 180 µM (inactive). The EC50 [4] was > 150 µM (inactive) and the EC50 [5] was 4.42 µM (active).
For Cc1ccc(-n2ncc3c(SCc4cccnc4)ncnc32)c(C)c1, the IC50 [6] was 1.09 µM (active), the IC50 [7] was 21.8 µM (active) and the IC50 [8] was 1.77 µM (active). For the same molecule, the CC50 [9] was 20.9 µM (active).
In the case of Cc1ccc(S(=O)(=O)Cc2ccc(C(=O)N3CCN(c4cccc(C)c4C)CC3)o2)cc1, the EC50 [10] is reported as 13.3 µM (inconclusive), the EC50 [11] is reported as > 112 µM (not active) and the EC50 [12] is reported as 8.13 µM (inconclusive). For the same molecule, the IC50 [13] was > 80 µM (inactive), the EC50 [14] was 18 µM (active) and the EC50 [15] was 57.2 µM (active). For the same molecule, the EC50 [16] was 4.2 µM (active).
For CCn1c(=O)n(C)c(=O)n([C@@H](Cc2ccccc2)C(N)=O)c1=O, the IC50 [17] was > 100 µM (inactive), the IC50 [18] was > 100 µM (inactive) and the IC50 [19] was > 100 µM (not active). The IC50 [20] was > 100 µM (not active).
For CCCn1c(=O)nc(NCc2ccccc2OC)[nH]c1=O, the IC50 [17] was > 100 µM (inactive), the IC50 [18] was > 100 µM (inactive) and the IC50 [19] was > 100 µM (not active). The IC50 [20] was > 100 µM (not active).
In the case of CCOCCCNC(=O)c1cc(-c2cccnc2)nc2ccc(S(=O)(=O)N3CCC(C)CC3)cc12, the EC50 [21] is reported as 6.09 µM (inactive).
With CC(C)CC(=O)NC(c1ccccc1)c1ccc2cccnc2c1O (stereo not drawn) the IC50 [22] was 4.18 µM (active), the IC50 [23] was 10.4 µM (active) and the IC50 [24] was 7.19 µM (active).
For Cc1ccccc1C(=O)Nc1cccc(C(=O)N/N=C/c2cc(Cl)cc([N+](=O)[O-])c2O)c1, the IC50 [25] was 6.22 µM (active), the AC50 [26] was 95.3 µM (active) and the CC50 [27] was 33 µM (active). For the same molecule, the IC50 [28] was > 100 µM (active), the IC50 [29] was > 100 µM (inactive) and the IC50 [30] was 50 µM (inactive). The AC50 [31] was 7.14 µM (active) and the IC50 [32] was > 94.1 µM (inactive).
With O=C(N/N=C\c1cc(Cl)ccc1O)c1ccc(S(=O)(=O)N2CCCCC2)cc1 the EC50 [33] was > 350 µM (not active), the EC50 [2] was 0.381 µM (active) and the AC50 [34] was 46.3 µM (active). The EC50 [4] was 63.9 µM (inconclusive), the AC50 [35] was 2.81 µM (active) and the AC50 [31] was 1.01 µM (active). The EC50 [36] was 265 µM (active).
